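Five concentrations, 48 hours, 96-well plates. TGI is the concentration that stops growth completely.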
How the values were obtained:
Assay in all cases: NCI tumour cell line growth inhibition, 48 h
ACHN renal = tested on: ACHN renal
HOP-18 NSCLC = tested on: HOP-18 NSCLC
HOP-62 NSCLC = tested on: HOP-62 NSCLC
K-562 leukemia = tested on: K-562 leukemia
M19-MEL melanoma = tested on: M19-MEL melanoma
NCI-H23 lung = tested on: NCI-H23 lung
SF-268 CNS = tested on: SF-268 CNS
SNB-75 CNS = tested on: SNB-75 CNS
SNB-78 CNS = tested on: SNB-78 CNS
TK-10 renal = tested on: TK-10 renal
U251 CNS = tested on: U251 CNS

SMILES	TGI (ACHN renal) [µM]	TGI (HOP-18 NSCLC) [µM]	TGI (HOP-62 NSCLC) [µM]	TGI (K-562 leukemia) [µM]	TGI (M19-MEL melanoma) [µM]	TGI (NCI-H23 lung) [µM]	TGI (SF-268 CNS) [µM]	TGI (SNB-75 CNS) [µM]	TGI (SNB-78 CNS) [µM]	TGI (TK-10 renal) [µM]	TGI (U251 CNS) [µM]
NNC(=O)C(=O)NN=C(C(Cl)(Cl)CO)C(Cl)(Cl)CO	> 100	> 100	> 100	> 100	46.8	92.9	> 100	86.8	> 100	> 100	53.2
CCOC(=O)/C(=C/c1ccccn1)C(=O)c1ccccc1	> 56.2	32.7	33	85	31.3	30.5	44	27.5	38.9	32.3	27.4
COc1ccc(-c2c(C3=NCCCN3)nnn2-c2ccccc2)cc1	> 100	> 100	> 100	> 100	> 100	> 100	> 100	> 100	> 100	> 100	> 100
C1CSCCSCCCS[C@@H]2CCCCC2SC1 (stereo not given in full)	> 100	> 100	> 100	96.1	> 100	> 100	> 100	> 100	> 100	> 100	> 100
O=C1CC(c2ccc(Cl)cc2)=Nc2ccccc2N1	> 100	> 100	> 100	> 100	> 100	> 100	> 100	50.2	> 100	> 100	75.6

Reference: PubChem BioAssay (NCI)
